Data reported in patent publication US20250177302A1, “LIPOSOME COMPOSITION AND LIPOSOME-CONTAINING PHARMACEUTICAL COMPOSITION” (Eisai R&D Management Co., Ltd., priority 2022, published 2025).

What was measured:
[1] = Measurement of blood drug concentration (2), change over time; type: in vivo; conditions: mice, i.v. 2 mg/kg, 15 minutes, 4 hours and 24 hours after administration
Description: The blood was centrifuged for 10 minutes at about 1200 g, and the plasma was collected. The drug concentration of the harvested plasma was assayed using LC-MS/MS.
The liposome compositions of Examples 2, 5 and 8, and an aqueous solution of methanesulfonic acid salt of compound (I), were administered to mice by the same method as “4. Measurement of blood drug concentration (1)”, collecting blood at 15 minutes, 4 hours and 24 hours after administration, and measuring the change in blood drug concentration.

[2] = system: HUVEC proliferation in the presence of VEGF; assay: HUVEC 2D growth assay, cell proliferation by VEGF stimulation; type: cell-based; conditions: Homo sapiens, 72 h, VEGF 20 ng/mL, 3 days, CellTiter-Glo
Description: (§1) 1. Measurement of Inhibiting Effect on Cell Proliferation by Vascular Endothelial Growth Factor (VEGF) or Basic Fibroblast Growth Factor (bFGF) Stimulation
(§2) The inhibiting effect of compound (I) on cell proliferation by VEGF or bFGF stimulation was evaluated by the following procedure based on HUVEC 2D growth assay.
(§3) Normal human umbilical vein endothelial cells (HUVEC) were isolated by a previously reported method (Shinseikagaku Jikken Koza, “Cell Culture Technology”, p.197-202). The cells were cultured overnight in a collagen I-coated flask (IWAKI 4143-010), with EGM-2 culture medium (Lonza Inc CC-3162) containing 10% Fetal Bovine Serum (FBS: Sigma 172012) in a 5% CO2 incubator (37° C.). On the following day, the culture supernatant was discarded and the medium was exchanged with EBM-2 culture medium containing 2% FBS, prior to further culturing overnight. On the following day, 2% FBS, and a HUVEC cell suspension prepared to 1.5×10^4 cells/mL with Human Endothelial Serum Free Medium (SFM: Gibco 11111-044) containing penicillin/streptomycin (FujiFilm-Wako Pure Chemical Industries) (hereunder referred to as “2% FBS-SFM”) were each added at 100 μL to each well of a 96-well plate (Corning 3904), and culturing was carried out overnight in a 5% CO2 incubator (37° C.). […]

[3] = system: HUVEC proliferation in the presence of bFGF; assay: HUVEC 2D growth assay, cell proliferation by bFGF stimulation; type: cell-based; conditions: Homo sapiens, 72 h, bFGF 20 ng/mL, 3 days, CellTiter-Glo
Description: as §1, §2, §3

Change in blood drug concentration (FIG. 1), in words [1]	SMILES	IC50 [2]	IC50 [3]
significantly lower after 24 hours	CCNC(=O)Nc1ccc(Oc2ccnc3cc(OC)c(C(N)=O)cc23)cc1Cl.CS(=O)(=O)O [4-(3-Chloro-4-(ethylaminocarbonyl)aminophenoxy)-7-methoxy-6-quinolinecarboxamide methanesulfonate]		
	CCNC(=O)Nc1ccc(Oc2ccnc3cc(OC)c(C(N)=O)cc23)cc1Cl [compound (I), 4-(3-chloro-4-(ethylaminocarbonyl)aminophenoxy)-7-methoxy-6-quinolinecarboxamide]	1.75 nM	343 nM
